Each structure is given as a SMILES string. Some results are limits rather than exact numbers.

As usually defined, the IC50 is the point on the concentration scale where inhibition reaches its midpoint. A word on the EC50: it is the midpoint of the concentration-response curve. Lower therefore signals greater potency.

The target of one assay is T1, PD-1/PD-L1 (Homo sapiens, UniProt Q9NZQ7).
T1 construct: purchased Cisbio 63ADK000CPDPEB
The assay can be described thus: PD-1/PD-L1 binding assay (HTRF, PPI-HTRF). The settings on record: HTRF PD1/PD-L1 binding assay kit; 10 nM Tag1-PD-L1; 25° C. An outline of the steps:
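HTRF binding assay: compound was mixed with tagged proteins at final concentrations of 10 nM Tag1-PD-L1 and 2 nM PD1 for 15 min at 25 °C. Anti-Tag1-Eu³⁺ and anti-Tag2-XL665 antibodies were then added for 16 h at 25 °C. IC50 was derived from the 665/620 nm emission ratio.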
On the technique in general: TR-FRET usually uses a lanthanide donor and a delayed reading to cut background.

For assay [1], the system named is Jurkat T(PD1 Luc-)/CHOK1(PDL-1). The assay can be described thus: Jurkat T(PD1 Luc-)/CHOK1(PDL-1) cell experiment (luciferase reporter). The format is cell-based. The settings on record: CHO/PD-L1-OKT3 cells co-cultured with Jurkat/PD1-NFAT-Luc cells for 6 hours; Bio-Glo luciferase signal. Put shortly:
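CHO/PD-L1-OKT3 cells plated 24 h at 37 °C, then compound in DMSO (1 uM final) added together with Jurkat/PD1-NFAT-Luc cells and co-cultured 6 h. Luciferase signal read with Bio-Glo; EC50 by non-linear regression.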
In general terms: Reporter assays use an easily measured gene product as a stand-in for the process of interest.

T1 sequence (Q9NZQ7 19-238 limits assumed): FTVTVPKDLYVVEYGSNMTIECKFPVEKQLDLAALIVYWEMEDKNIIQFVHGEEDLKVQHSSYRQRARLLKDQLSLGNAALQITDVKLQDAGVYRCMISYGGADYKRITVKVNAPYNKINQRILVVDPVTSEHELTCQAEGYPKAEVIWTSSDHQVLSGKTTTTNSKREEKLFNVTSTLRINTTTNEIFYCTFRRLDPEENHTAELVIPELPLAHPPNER

At PD-1/PD-L1, `COc1cc(C(=O)Nc2cccc(-c3cccc(/C=C/c4cc(CN5CC[C@@H](C(=O)O)C5)ccc4C(F)(F)F)c3C)c2C)ncc1CN1CC[C@@H](O)C1` [Z-124] gave an IC50 of 1 nM. In assay [1], the EC50 was 109 nM.
As to `COC(=O)C[C@H](O)CNCc1cc(C(F)(F)F)c(/C=C/c2cccc(-c3cccc(NC(=O)c4cc(OC)c(CN5CC[C@@H](O)C5)cn4)c3C)c2C)cc1OC` [Z-128], the IC50 on PD-1/PD-L1 was < 1 nM. In assay [1], this molecule returned an EC50 of 39 nM.
At PD-1/PD-L1, `COc1cc(/C=C/c2cccc(-c3cccc(NC(=O)c4nc5c(n4C)CCN([C@H]4CC[C@@H](O)CC4)C5)c3C)c2C)c(C(F)(F)F)cc1CN1CC[C@@H](C(=O)O)C1` [Z-131, (R)-1-(4-((E)-2-(3′-(5-((1s,4s)-4-hydroxycyclohexyl)-1-methyl-4,5,6,7-tetrahydro-1H-imidazo[4,5-c]pyridine-2-carboxamido)-2,2′-dimethyl-[1,1′-biphenyl]-3-yl)vinyl)-2-methoxy-5-(trifluoromethyl)benzyl)pyrrolidine-3-carboxylic Acid] registered a concentration for half-maximal inhibition (IC50) of 1 nM. In assay [1], this molecule gave an EC50 of 124 nM.
Regarding `COc1cc(/C=C/c2cccc(-c3cccc(NC(=O)c4nc5c(n4C)CCN([C@H]4CC[C@H](O)CC4)C5)c3C)c2C)c(C(F)(F)F)cc1CN1CC[C@@H](C(=O)O)C1` [Z-132, (R)-1-(4-((E)-2-(3′-(5-((1r,4r)-4-hydroxycyclohexyl)-1-methyl-4,5,6,7-tetrahydro-1H-imidazo[4,5-c]pyridine-2-carboxamido)-2,2′-dimethyl-[1,1′-biphenyl]-3-yl)vinyl)-2-methoxy-5-(trifluoromethyl)benzyl)pyrrolidine-3-carboxylic Acid], the 50% inhibitory concentration (IC50) on PD-1/PD-L1 was found to be 1 nM. The molecule also returned an EC50 in assay [1] of 168 nM.
The matching figures for `COC(=O)[C@@H]1CCN(Cc2cc(C(F)(F)F)c(/C=C/c3cccc(-c4cccc(NC(=O)c5cc(OC)c(CN6CC[C@@H](O)C6)cn5)c4C)c3C)cc2OC)C1` [Z-133]: 2 nM and 31 nM.
`COc1cc(/C=C/c2cccc(-c3cccc(NC(=O)c4nc5c(n4C)CCN(C(C)C)C5)c3C)c2C)c(C(F)(F)F)cc1CN1CC[C@@H](C(=O)O)C1` [Z-134, (R,E)-1-(4-(2-(3′-(5-isopropyl-1-methyl-4,5,6,7-tetrahydro-1H-imidazo[4,5-c]pyridine-2-carboxamido)-2,2′-dimethyl-[1,1′-biphenyl]-3-yl)vinyl)-2-methoxy-5-(trifluoromethyl)benzyl)pyrrolidine-3-carboxylic Acid] gave an IC50 at PD-1/PD-L1 of 1 nM. Moreover, the EC50 in assay [1] was 91 nM.
In the case of `COc1cc(C(=O)Nc2cccc(-c3cccc(/C=C/c4cc(OC)c(CN5CC[C@@H](O)C5)cc4C(F)(F)F)c3C)c2C)ncc1CN1CC[C@@H](O)C1` [Z-135], the IC50 at PD-1/PD-L1 was ≤ 1 nM. This molecule displayed an EC50 in assay [1] of 44 nM.
The matching figures for `COc1cc(C(=O)Nc2cccc(-c3cccc(/C=C/c4cc(OC)c(CN5CC[C@@H](C(=O)O)C5)cc4C(F)(F)F)c3Cl)c2C)ncc1CN1CC[C@@H](O)C1` [Z-140]: ≤ 1 nM and 7 nM.
In the case of `CNc1cc(C(=O)Nc2cccc(-c3cccc(/C=C/c4cc(OC)c(CN5CCC(C(=O)O)C5)cc4C(F)(F)F)c3C)c2C)ncc1CN1CC[C@@H](O)C1` (stereo partly drawn) [Z-141], the IC50 at PD-1/PD-L1 is ≤ 1 nM. Besides, in assay [1], the EC50 stood at 74 nM.

Values taken from patent publication US20210386721A1, “SUBSTITUTED PHENYLPROPENYL PYRIDINE DERIVATIVES, THEIR PREPARATION AND PHARMACEUTICAL APPLICATIONS” (SHANGHAI HAIYAN PHARMACEUTICAL TECHNOLOGY CO., LTD., priority 2019, published 2021).
